Laboratory results reported in patent US20120095012A1, “TOLUIDINE SULFONAMIDES AND THEIR USE” (Elara Pharmaceuticals GmbH, priority 2008, published 2012).

Key:
[1] = system: MCF-7 human breast adenocarcinoma cells; HRE-bla HCT116 cell line (colorectal carcinoma); assay: Cell proliferation assay (ATPlite luminescence); assay type: cell-based; conditions: ATPlite readout, cell line not given
Description: MCF-7 human breast adenocarcinoma cells were obtained from ATCC (LGC Promochem). The CellSensor® HRE-bla HCT116 cell line (colorectal carcinoma) was obtained from Invitrogen.
Cells were grown under humidified 95% air, 5% CO2 at 37° C. in Dulbecco's modified Eagle's medium (DMEM: MCF-7) or McCoy's 5A medium (HRE-bla HCT116) supplemented with 10% fetal bovine serum (FBS), 100 U/ml penicillin and 100 μg/ml streptomycin, 2 mM L-glutamine, and blasticidin at 5 μg/ml as a selection marker (for the HRE-bla HCT116 cell line only).
Cell proliferation experiments were carried out in 96-well tissue culture plates with seeding of 2000 cells/well in 100 μl of the relevant medium. Cells were subsequently incubated under the conditions mentioned for 24 h prior to addition of compounds.
To determine the degree of inhibition of cell proliferation, cells were treated with ATPlite solution according to the manufacturer's instructions (PerkinElmer, ATPlite 1-step Luminescence ATP Detection Assay System) and luciferase readout measured on an Envision HTS multilabel plate reader (PerkinElmer) in luminescence mode according to established protocols. Raw data were imported into an ActivityBase database (IDBS, ID Business Solutions) and EC50 values calculated using the IDBS program ActivityBase XE.

[2] = system: HIF mediated transcription; assay: Inhibition of activation of HIF mediated transcription under hypoxic conditions (CellSensor HRE-bla HCT-116 reporter, DFO-induced); assay type: cell-based; conditions: Homo sapiens; HRE-bla HCT-116 reporter cells, deferoxamine-induced hypoxia, 24 h
Description: Inhibition of an activated HIF signaling response under chemically-induced hypoxic conditions due to compound treatment was determined using the CellSensor® […] HCT-116 stably transfected reporter cell line from Invitrogen according to the manufacturer's instructions. HIF is a transcriptional factor composed of the constitutively expressed HIF 1β subunit and one of three HIFα subunits (HIF1α, HIF2α, HIF3α). This assay is responsive towards HIFα activity in general. In one example, HIF-1, when stabilized by hypoxic conditions, upregulates several genes to promote cell survival in low-oxygen conditions. These include glycolysis enzymes, which allow ATP synthesis in an oxygen-independent manner, and vascular endothelial growth factor (VEGF), which promotes angiogenesis. HIF-1 acts by binding to HIF-responsive elements (HREs) in promoters that generally contain the sequence NCGTG.
Cells were maintained as described previously and seeded into 384-well, clear-bottom plates (Corning 3712) at 15000 cells/well in 32 μl assay medium (Opti-MEM [Invitrogen], 0.5% FBS, 100 U/ml penicillin, 100 μg/ml streptomycin, 0.1 mM non-essential amino acids [NEAA], 1 mM sodium pyruvate, 5 mM HEPES [pH 7.3]). Following a 2 h incubation period, compounds (4 μl) were subsequently added to the cells at 10× concentrations in 5% DMSO and incubated under normal conditions for 30 min. To induce hypoxic conditions, 4 μl of a 2 mM deferoxamine (DFO) solution was added to the cells followed by 24 h incubation under standard assay conditions (as described). Control wells included wells containing only medium (no cells) and wells treated with 0.5% DMSO instead of compound.
Prior to the readout, the Substrate Loading Solution was prepared as described in the manufacturer's protocol and 10 μl added to each well. Following a further 2 h incubation period at room temperature and in the dark, fluorescence was measured at two wavelengths (blue channel: ex. 409 nm, em. 460 nm; green channel: ex. 409 nm, em. 530 nm) on a PerkinElmer Envision HTS. For the analysis, the average signal of the cell-free wells at 460 nm and 530 nm was first subtracted from the blue and green channel data, respectively. The blue/green emission ratios were then calculated for each well, dividing the background-corrected blue emission values by the background-corrected green emission values. IC50 values were determined from these ratios using GraphPad Prism (Prism 5, GraphPad software, Inc.).

[3] = biological target: T1, tubulin (from porcine brain) (Sus scrofa, UniProt P02550+P02554); assay: Inhibition of in vitro tubulin polymerization (OD 340 nm, 90 min); assay type: biochemical; conditions: final absorbance at 90 min vs vehicle control, read-out: tubulin inhib. (at 10 μM)
T1 construct: prepared in-house from porcine brain using a standard procedure involving cycles of polymerization/de-polymerization; from tissue; host or cells: porcine brain
T1 sequence (P02550 whole entry): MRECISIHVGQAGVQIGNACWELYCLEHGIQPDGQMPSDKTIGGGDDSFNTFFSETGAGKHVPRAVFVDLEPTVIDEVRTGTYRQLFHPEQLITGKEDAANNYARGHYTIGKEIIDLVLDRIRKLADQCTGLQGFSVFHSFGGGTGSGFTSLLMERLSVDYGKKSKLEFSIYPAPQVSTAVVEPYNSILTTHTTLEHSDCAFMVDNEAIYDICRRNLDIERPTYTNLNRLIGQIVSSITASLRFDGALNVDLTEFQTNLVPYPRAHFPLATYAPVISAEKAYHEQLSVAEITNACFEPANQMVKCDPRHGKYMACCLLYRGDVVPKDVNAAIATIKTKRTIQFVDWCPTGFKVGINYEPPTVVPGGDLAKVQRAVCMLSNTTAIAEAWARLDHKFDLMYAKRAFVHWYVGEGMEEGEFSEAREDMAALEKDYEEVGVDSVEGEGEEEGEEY
T1 sequence (P02554 whole entry): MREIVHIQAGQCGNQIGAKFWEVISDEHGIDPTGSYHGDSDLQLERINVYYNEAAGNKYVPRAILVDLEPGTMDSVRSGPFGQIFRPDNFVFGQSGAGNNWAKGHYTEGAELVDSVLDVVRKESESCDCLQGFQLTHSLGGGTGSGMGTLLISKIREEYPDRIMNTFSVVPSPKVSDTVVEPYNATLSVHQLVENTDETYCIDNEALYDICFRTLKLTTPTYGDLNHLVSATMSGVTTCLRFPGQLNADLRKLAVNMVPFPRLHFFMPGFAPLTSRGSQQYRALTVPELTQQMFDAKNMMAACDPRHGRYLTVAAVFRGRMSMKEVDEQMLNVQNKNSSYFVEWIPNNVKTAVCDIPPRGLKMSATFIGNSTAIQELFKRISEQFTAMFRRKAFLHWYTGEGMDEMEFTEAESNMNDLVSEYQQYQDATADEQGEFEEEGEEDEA
Description: To assess the degree of inhibition of in vitro tubulin polymerization, a tubulin solution (prepared in-house from porcine brain using a standard procedure involving cycles of polymerization/de-polymerization, (see Castoldi & Popov (2003) Protein Expr. Purif. 32(1): 83-88), was incubated with varying concentrations of compounds under polymerizing conditions and kinetic experiments performed to determine the amount of polymerization (as measured by changes in OD at 340 nm) taking place over a 90 min period.
Compound solutions were diluted in double-distilled water to yield final 10× solutions containing 5% DMSO. 5 μl solutions were then added to the wells on a 384-well clear-bottom plate (Corning #3711, Corning Inc.) in preparation for the addition of tubulin. The tubulin solution (19.6 mg/ml, in 80 mM K-PIPES [pH 6.8], 1 mM MgCl2, 1 mM EGTA) was re-suspended to a final concentration of 4 mg/ml with ice cold G-PEM buffer (80 mM PIPES [pH 6.8], 2 mM MgCl2, 0.5 mM EGTA, 10% glycerol, 1 mM GTP) and maintained on ice for at least 1 min. 50 μl was then added to the pre-dispensed compound solutions, the plate orbital shaken on a medium setting for 5s, and the first measurement begun immediately.
Experiments were carried out on a Safire^2 ™ monochromator (Tecan) preset to a stable temperature of 37° C.; the degree of polymerization was determined by measuring the absorbance of the solutions at 340 nm every minute over the 90 min cycle. Reported inhibition values were based on the final absorbance at 90 min and calculated with reference to a vehicle control (0.5% DMSO) using the minimum and maximum signals obtained for this sample.

| Compound | EC50 ([1]; Homo sapiens) [nM] | further results |
| --- | --- | --- |
| Cc1ccc(-c2ccc(C#N)s2)cc1NS(=O)(=O)c1cn(C)cn1 [Example 12, N-(5-(5-cyanothiophen-2-yl)-2-methylphenyl)-1-methyl-1H-imidazole-4-sulfonamide] | 1000 to 10000 |  |
| Cc1ccc(-c2ccc(C#N)s2)cc1NS(=O)(=O)c1cccnc1 [Example 14, N-(5-(5-cyanothiophen-2-yl)-2-methylphenyl)pyridine-3-sulfonamide] | 1000 to 10000 |  |
| Cc1ccc(-c2ccc(C#N)s2)cc1NS(=O)(=O)c1ccc(C(F)(F)F)cn1 [Example 16, N-(5-(5-cyanothiophen-2-yl)-2-methylphenyl)-5-(trifluoromethyl)pyridine-2-sulfonamide] | 1000 to 10000 |  |
| CCc1ccc(S(=O)(=O)Nc2cc(-c3ccc(C#N)cc3)ccc2C)s1 [Example 5, 5-Ethyl-thiophene-2-sulfonic acid (4′-cyano-4-methyl-biphenyl-3-yl)-amide] | < 500 |  |
| COc1ccc(S(=O)(=O)Nc2cc(-c3csc(C#N)c3)ccc2C)cn1 [Example 7, N-(5-(5-cyanothiophen-3-yl)-2-methylphenyl)-6-methoxypyridine-3-sulfonamide] | < 500 | EC50 [2]: < 500 nM |
| Cc1ccc(-c2ccc(C#N)s2)cc1NS(=O)(=O)c1ccco1 [Example 6, Furan-2-sulfonic acid [5-(5-cyano-thiophen-2-yl)-2-methyl-phenyl]-amide] | 1000 to 10000 |  |
| Cc1ccc(S(=O)(=O)Nc2cc(-c3ccc(C#N)s3)ccc2C)s1 [Example 3, 5-Methyl-thiophene-2-sulfonic acid [5-(5-cyano-thiophen-2-yl)-2-methyl-phenyl]-amide] | < 500 | inhibition at 10 µM [3]: < 20% |
| Cc1ccc(-c2ccc(C#N)s2)cc1NS(=O)(=O)c1cccs1 [Example 9, N-(5-(5-cyanothiophen-2-yl)-2-methylphenyl)thiophene-2-sulfonamide] | < 500 |  |
| COc1ccc(S(=O)(=O)Nc2cc(-c3ccc(C#N)cc3)ccc2C)cn1 [Example 4, 6-Methoxy-pyridine-3-sulfonic acid (4′-cyano-4-methyl-biphenyl-3-yl)-amide] | < 500 |  |
| Cc1ccc(-c2ccc(C#N)s2)cc1NS(=O)(=O)c1cn(C)c(C)n1 [Example 15, N-(5-(5-cyanothiophen-2-yl)-2-methylphenyl)-1,2-dimethyl-1H-imidazole-4-sulfonamide] | 1000 to 10000 |  |
| N-(4′-cyano-4-methylbiphenyl-3-yl)-6-(dimethylamino)pyridine-3-sulfonamide [Example 27] |  | EC50 [1]: 500 to 1000 nM |
| Cc1ccc(-c2ccc(C#N)s2)cc1NS(=O)(=O)c1ccsc1 [Example 10, N-(5-(5-cyanothiophen-2-yl)-2-methylphenyl)thiophene-3-sulfonamide] | 500 to 1000 |  |
| Cc1ccc(-c2ccc(C#N)s2)cc1NS(=O)(=O)c1ccc(Cl)s1 [Example 11, 5-chloro-N-(5-(5-cyanothiophen-2-yl)-2-methylphenyl)thiophene-2-sulfonamide] | 500 to 1000 |  |
| Cc1ccc(S(=O)(=O)Nc2cc(-c3ccc(C#N)cc3)ccc2C)s1 [Example 8, N-(4′-cyano-4-methylbiphenyl-3-yl)-5-methylthiophene-2-sulfonamide] | < 500 | EC50 [2]: < 500 nM |
| Cc1ccc(-c2ccc(C#N)s2)cc1NS(=O)(=O)c1c(C)noc1C [Example 17, N-(5-(5-cyanothiophen-2-yl)-2-methylphenyl)-3,5-dimethylisoxazole-4-sulfonamide] | 1000 to 10000 |  |
| Cc1cc(S(=O)(=O)Nc2cc(-c3ccc(C#N)s3)ccc2C)c(C)s1 [Example 13, N-(5-(5-cyanothiophen-2-yl)-2-methylphenyl)-2,5-dimethylthiophene-3-sulfonamide] | 1000 to 10000 |  |

Further lines, with some results ahead:

| EC50 ([1]; Homo sapiens) [nM] | Compound | further results |
| --- | --- | --- |
| < 500 | Cc1ccc(-c2ccc(C#N)s2)cc1NS(=O)(=O)c1ccc(Cl)nc1 [Example 28, 6-chloro-N-(5-(5-cyanothiophen-2-yl)-2-methylphenyl)pyridine-3-sulfonamide] |  |
| < 500 | Cc1ccc(S(=O)(=O)Nc2cc(-c3ccc(C#N)cc3)ccc2C)cn1 [Example 23, N-(4′-cyano-4-methylbiphenyl-3-yl)-6-methylpyridine-3-sulfonamide] | EC50 [2]: < 500 nM |
| 1000 to 10000 | Cc1cccc(S(=O)(=O)Nc2cc(-c3ccc(C#N)s3)ccc2C)n1 [Example 22, N-(5-(5-cyanothiophen-2-yl)-2-methylphenyl)-6-methylpyridine-2-sulfonamide] |  |
| < 500 | Cc1ccc(S(=O)(=O)Nc2cc(-c3ccc(C#N)s3)ccc2C)cn1 [Example 24, N-(5-(5-cyanothiophen-2-yl)-2-methylphenyl)-6-methylpyridine-3-sulfonamide] | EC50 [2]: < 500 nM |
| 1000 to 10000 | Cc1cc(S(=O)(=O)Nc2cc(-c3ccc(C#N)s3)ccc2C)c(C(F)(F)F)o1 [Example 19, N-(5-(5-cyanothiophen-2-yl)-2-methylphenyl)-5-methyl-2-(trifluoromethyl)furan-3-sulfonamide] |  |
| < 500 | Cc1ccc(-c2ccc(C#N)s2)cc1NS(=O)(=O)c1ccc(N(C)C)nc1 [Example 29, N-(5-(5-cyanothiophen-2-yl)-2-methylphenyl)-6-(dimethylamino)pyridine-3-sulfonamide] |  |
| < 500 | Cc1ccc(-c2ccc(C#N)cc2)cc1NS(=O)(=O)c1ccc(Cl)nc1 [Example 26, 6-chloro-N-(4′-cyano-4-methylbiphenyl-3-yl)pyridine-3-sulfonamide] |  |
| 1000 to 10000 | Cc1ccc(-c2ccc(C#N)cc2)cc1NS(=O)(=O)c1ccc(C#N)nc1 [Example 21, 6-cyano-N-(4′-cyano-4-methylbiphenyl-3-yl)pyridine-3-sulfonamide] |  |
| 1000 to 10000 | Cc1ccc(-c2ccc(C#N)cc2)cc1NS(=O)(=O)c1sccc1C [Example 20, N-(4′-cyano-4-methylbiphenyl-3-yl)-3-methylthiophene-2-sulfonamide] |  |
| < 500 | COc1ccc(S(=O)(=O)Nc2cc(-c3ccc(C#N)c(OC)c3)ccc2C)cn1 [Example 18, N-(4′-cyano-3′-methoxy-4-methylbiphenyl-3-yl)-6-methoxypyridine-3-sulfonamide] | EC50 [2]: < 500 nM |
| < 500 | Cc1ccc(S(=O)(=O)Nc2cc(-c3ccc(C#N)s3)ccc2C)nc1 [Example 25, N-(5-(5-cyanothiophen-2-yl)-2-methylphenyl)-5-methylpyridine-2-sulfonamide] |  |
